This experiment deals with Sarcoplasmic/endoplasmic reticulum calcium ATPase 1 (Oryctolagus cuniculus, UniProt P04191). Nature of the experiment: Inhibition of rabbit SERCA1a preincubated for 10 mins followed by addition of ATP and measured after 10 mins by colorimetric method.

Each structure is given as a SMILES string.

This note sets out measurements from BindingDB's records for doi:10.1021/acs.jmedchem.9b01509 (University of Chemistry and Technology Prague, 2020).

Sequence of Sarcoplasmic/endoplasmic reticulum calcium ATPase 1 (P04191 whole entry): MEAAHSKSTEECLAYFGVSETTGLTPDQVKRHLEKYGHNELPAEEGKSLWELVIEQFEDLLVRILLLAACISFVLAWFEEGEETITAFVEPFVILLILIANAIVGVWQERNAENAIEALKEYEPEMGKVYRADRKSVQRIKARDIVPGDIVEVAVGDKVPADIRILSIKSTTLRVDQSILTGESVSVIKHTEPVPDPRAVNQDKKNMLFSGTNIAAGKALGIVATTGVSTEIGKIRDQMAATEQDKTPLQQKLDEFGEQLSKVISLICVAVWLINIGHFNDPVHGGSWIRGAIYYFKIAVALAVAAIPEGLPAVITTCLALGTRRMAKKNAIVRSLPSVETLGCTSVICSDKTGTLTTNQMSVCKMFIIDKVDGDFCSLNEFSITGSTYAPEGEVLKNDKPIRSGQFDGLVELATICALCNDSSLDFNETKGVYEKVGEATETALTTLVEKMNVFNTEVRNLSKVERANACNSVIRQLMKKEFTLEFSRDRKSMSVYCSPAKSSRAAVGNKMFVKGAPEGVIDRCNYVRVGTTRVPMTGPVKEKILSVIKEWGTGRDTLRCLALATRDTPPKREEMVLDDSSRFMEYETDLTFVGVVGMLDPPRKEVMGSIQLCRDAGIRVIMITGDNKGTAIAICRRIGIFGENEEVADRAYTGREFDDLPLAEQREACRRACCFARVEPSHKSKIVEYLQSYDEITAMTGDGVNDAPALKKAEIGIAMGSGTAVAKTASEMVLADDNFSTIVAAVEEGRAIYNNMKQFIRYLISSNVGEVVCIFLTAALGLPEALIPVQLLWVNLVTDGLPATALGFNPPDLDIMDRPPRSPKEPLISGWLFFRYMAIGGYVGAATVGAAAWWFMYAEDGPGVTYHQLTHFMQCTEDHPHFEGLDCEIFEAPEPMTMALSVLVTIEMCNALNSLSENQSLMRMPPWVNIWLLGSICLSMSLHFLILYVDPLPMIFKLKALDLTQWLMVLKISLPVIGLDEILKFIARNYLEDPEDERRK

As a reminder, the IC50 is the concentration that gives 50% inhibition. Regarding `CC[C@H](C)[C@H]1O[C@]2(CC[C@@H]1C)C[C@@H]1C[C@@H](C/C=C(\C)[C@@H](O[C@H]3C[C@H](OC)[C@@H](O[C@H]4C[C@H](OC)[C@@H](O)[C@H](C)O4)[C@H](C)O3)[C@@H](C)/C=C/C=C3\CO[C@@H]4[C@H](O)C(C)=C[C@@H](C(=O)O1)[C@]34O)O2` [ABAMECTIN], the IC50 is 15 µM.
